Experimental findings from ChEMBL document CHEMBL1201862, “PubChem BioAssay data set” (2004) are described below.

One series has as its target Cytochrome P450 3A4 (Homo sapiens, UniProt P08684).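 Also: CYP3A4 tested as one member of a cytochrome P450 panel screen.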
Series [1] addresses T1, Tyrosine-protein phosphatase non-receptor type 22 (Homo sapiens, UniProt Q9Y2R2).
T1 sequence (Q9Y2R2 whole entry): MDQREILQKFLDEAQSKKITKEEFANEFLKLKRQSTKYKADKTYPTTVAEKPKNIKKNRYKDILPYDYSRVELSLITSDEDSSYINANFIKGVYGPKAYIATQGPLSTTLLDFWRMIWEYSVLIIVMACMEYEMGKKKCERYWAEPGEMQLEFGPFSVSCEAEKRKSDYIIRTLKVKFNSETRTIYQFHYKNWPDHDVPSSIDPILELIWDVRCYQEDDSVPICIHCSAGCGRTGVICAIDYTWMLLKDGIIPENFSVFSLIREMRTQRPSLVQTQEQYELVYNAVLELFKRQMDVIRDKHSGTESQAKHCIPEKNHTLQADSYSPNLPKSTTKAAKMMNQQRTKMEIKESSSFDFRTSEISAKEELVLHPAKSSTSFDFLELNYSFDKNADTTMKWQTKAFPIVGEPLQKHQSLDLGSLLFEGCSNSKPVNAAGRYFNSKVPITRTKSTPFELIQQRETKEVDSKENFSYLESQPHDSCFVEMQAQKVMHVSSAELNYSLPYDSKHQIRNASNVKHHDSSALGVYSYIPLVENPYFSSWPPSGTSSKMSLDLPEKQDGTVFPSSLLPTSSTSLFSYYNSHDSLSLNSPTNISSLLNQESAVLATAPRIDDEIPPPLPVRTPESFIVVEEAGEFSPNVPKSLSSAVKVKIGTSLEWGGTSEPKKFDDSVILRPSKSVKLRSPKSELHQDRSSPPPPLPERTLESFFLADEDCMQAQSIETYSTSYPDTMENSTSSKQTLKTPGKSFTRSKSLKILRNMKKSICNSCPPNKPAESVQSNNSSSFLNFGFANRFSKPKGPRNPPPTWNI
Format: functional.

Series [2] has as its target T1, Tyrosine-protein phosphatase non-receptor type 22. Format: functional. The source holds these as a separate data set.
Series [3] deals with T2, Tyrosine-protein phosphatase non-receptor type 7 (Homo sapiens, UniProt P35236).
T2 sequence (P35236 whole entry): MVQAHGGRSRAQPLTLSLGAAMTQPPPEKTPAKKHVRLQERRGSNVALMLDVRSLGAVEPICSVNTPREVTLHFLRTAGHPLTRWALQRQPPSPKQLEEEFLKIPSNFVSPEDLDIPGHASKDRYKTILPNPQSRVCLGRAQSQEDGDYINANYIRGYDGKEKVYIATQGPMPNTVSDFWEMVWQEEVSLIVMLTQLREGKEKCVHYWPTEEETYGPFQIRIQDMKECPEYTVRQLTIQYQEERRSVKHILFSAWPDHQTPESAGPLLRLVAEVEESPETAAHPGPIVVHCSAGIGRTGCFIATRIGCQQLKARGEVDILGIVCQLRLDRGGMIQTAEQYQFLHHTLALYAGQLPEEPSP
Format: functional.

The next series addresses T3, Leucine aminopeptidase (Plasmodium falciparum 3D7, UniProt Q8IL11).
T3 sequence (Q8IL11 whole entry): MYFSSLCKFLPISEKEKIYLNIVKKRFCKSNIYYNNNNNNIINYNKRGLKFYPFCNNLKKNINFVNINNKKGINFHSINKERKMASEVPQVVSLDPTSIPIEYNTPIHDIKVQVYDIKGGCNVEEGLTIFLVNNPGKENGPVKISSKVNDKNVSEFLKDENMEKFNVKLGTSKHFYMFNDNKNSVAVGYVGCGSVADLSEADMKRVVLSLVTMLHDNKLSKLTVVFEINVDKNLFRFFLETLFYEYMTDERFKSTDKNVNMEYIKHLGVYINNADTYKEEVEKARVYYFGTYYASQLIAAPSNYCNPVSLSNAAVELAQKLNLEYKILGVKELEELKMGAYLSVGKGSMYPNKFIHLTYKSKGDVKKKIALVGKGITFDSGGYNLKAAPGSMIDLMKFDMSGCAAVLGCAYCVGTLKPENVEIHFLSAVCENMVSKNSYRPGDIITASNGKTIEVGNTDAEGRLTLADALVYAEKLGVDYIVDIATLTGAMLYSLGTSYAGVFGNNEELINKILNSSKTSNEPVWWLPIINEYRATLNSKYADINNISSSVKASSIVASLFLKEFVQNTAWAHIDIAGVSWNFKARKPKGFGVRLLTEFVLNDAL
Kind of series: P. falciparum M17LAP inhibitors, primary screen, biochemical, fluorogenic H-Leu-NHMec substrate, 1536-well (AID 1619). Format: functional.

Series [4] has as its system HEK293. Kind of series: cells. Format: functional, cell-based. As to conditions: Homo sapiens.
Series [5] relates to HEK293. Briefly: NOD1 signaling inhibitors, primary screen, cell-based, luminescence, uHTS (AID 1578). It counts as functional. As to conditions: Homo sapiens.
For the next series, the system named is Streptococcus. Kind of series: Group A Streptococcus viability loss, dose response, counter-screen for streptokinase expression inhibitor project, luminescence, BacTiterGlo (AID 1915).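 Also: potency for reduction of bacterial viability or growth.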 Format: functional, organism-based. On the technique in general: A counterscreen serves to expose hits that act by an unwanted route or on another target.
In a further series the target is Tumor necrosis factor (Homo sapiens, UniProt P01375). Briefly: TNFa-triggered NF-kB activation inhibitors, SAR follow-up, cell-based, revised (AID 2337). It counts as functional.
Tumor necrosis factor, sequence (P01375 whole entry): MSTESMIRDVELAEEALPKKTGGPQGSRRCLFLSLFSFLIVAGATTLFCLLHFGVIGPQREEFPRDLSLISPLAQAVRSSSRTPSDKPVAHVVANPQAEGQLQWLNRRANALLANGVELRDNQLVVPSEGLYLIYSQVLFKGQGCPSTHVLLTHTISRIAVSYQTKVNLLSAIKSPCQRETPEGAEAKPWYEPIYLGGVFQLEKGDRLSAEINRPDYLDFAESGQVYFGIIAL
Another series concerns the target T4, Streptokinase A (Streptococcus pyogenes serotype M1, UniProt P10520).
T4 sequence (P10520 whole entry): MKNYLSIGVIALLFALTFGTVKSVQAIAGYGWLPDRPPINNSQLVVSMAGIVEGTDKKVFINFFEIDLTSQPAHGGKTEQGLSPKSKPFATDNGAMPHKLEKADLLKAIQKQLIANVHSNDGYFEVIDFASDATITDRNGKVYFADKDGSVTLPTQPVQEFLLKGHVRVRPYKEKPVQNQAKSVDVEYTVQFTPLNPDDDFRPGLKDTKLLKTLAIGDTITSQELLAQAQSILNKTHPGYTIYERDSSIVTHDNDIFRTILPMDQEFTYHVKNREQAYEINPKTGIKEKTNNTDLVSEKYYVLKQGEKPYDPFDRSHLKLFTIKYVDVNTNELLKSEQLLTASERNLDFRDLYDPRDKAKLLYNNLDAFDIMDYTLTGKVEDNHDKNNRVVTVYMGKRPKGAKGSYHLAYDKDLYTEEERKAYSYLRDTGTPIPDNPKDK
Briefly: S. pyogenes streptokinase expression inhibitors, potency, dose response, plasminogen activation absorbance, OD405 (AID 1914).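 Also: secreted streptokinase activity via plasminogen activation per viability signal from cell pellet.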 Format: functional, Streptococcus pyogenes M1 GAS.

Series [6] relates to HEK293. Briefly: cells. As to conditions: Homo sapiens.
Series [7] deals with HEK293. Kind of series: cells. It counts as functional, cell-based. To be noted: Homo sapiens. The source holds these as a separate data set.
The subject of series [8] is HEK293. Kind of series: NOD2 signaling inhibitors in MDP-stimulated cells, cell-based, uHTS, luminescence (AID 2001). It counts as functional. As to conditions: Homo sapiens.
The target in series [9] is T5, Nucleotide-binding oligomerization domain-containing protein 1 (Homo sapiens, UniProt Q9Y239).
T5 sequence (Q9Y239 whole entry): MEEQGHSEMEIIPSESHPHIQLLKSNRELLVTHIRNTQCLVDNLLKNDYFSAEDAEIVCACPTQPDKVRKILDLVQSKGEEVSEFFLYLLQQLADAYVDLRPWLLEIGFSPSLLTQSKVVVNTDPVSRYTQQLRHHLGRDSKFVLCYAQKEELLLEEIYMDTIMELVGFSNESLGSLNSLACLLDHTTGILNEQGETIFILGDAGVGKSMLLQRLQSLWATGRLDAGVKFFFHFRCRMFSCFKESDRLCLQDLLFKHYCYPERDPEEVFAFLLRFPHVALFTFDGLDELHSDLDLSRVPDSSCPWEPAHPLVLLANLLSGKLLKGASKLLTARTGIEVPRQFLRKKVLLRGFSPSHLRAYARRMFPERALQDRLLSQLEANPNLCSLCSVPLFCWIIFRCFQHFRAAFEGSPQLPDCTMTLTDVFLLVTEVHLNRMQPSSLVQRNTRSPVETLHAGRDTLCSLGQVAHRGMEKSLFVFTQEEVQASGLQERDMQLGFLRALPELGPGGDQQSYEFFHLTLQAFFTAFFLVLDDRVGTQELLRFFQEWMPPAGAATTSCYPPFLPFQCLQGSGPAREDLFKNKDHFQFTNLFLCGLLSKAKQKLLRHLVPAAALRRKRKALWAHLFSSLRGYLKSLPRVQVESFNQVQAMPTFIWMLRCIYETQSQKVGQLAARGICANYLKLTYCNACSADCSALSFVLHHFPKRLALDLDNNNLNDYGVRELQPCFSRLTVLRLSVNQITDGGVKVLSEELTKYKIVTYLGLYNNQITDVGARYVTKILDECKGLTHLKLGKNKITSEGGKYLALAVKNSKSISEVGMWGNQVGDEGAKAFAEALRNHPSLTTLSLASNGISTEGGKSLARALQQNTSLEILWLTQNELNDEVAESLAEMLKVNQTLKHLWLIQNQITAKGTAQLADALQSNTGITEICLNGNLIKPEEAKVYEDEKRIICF
Briefly: NOD1 signaling inhibitors, SAR follow-up, revised (AID 2333). Format: functional.

Series [10] concerns Streptococcus sp. 'group A'. Briefly: growth inhibition of control SK(-) GAS strain, dose response, counter-screen for streptokinase expression inhibitor project, luminescence, kanamycin, BacTiterGlo, confirmation (AID 1900). It counts as functional, organism-based.
The target in series [11] is T6, Mannose-6-phosphate isomerase (Homo sapiens, UniProt P34949).
T6 sequence (P34949 whole entry): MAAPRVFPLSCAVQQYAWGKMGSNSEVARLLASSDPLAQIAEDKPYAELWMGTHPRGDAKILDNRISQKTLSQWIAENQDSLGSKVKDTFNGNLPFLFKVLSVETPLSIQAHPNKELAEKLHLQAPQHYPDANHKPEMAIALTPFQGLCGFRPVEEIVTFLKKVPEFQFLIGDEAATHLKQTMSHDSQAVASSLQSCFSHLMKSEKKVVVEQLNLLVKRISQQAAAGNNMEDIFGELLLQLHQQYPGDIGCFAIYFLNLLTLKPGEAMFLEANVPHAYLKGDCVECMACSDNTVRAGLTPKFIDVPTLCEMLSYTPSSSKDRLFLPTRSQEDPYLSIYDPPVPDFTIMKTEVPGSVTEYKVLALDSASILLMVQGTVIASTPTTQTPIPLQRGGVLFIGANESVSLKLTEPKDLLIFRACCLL
Kind of series: PMI enzyme inhibitors, confirmation, biochemical, fluorescence intensity (AID 1535).

In a further series the target is T7, Phosphomannomutase 2 (Homo sapiens, UniProt O15305).
T7 sequence (O15305 whole entry): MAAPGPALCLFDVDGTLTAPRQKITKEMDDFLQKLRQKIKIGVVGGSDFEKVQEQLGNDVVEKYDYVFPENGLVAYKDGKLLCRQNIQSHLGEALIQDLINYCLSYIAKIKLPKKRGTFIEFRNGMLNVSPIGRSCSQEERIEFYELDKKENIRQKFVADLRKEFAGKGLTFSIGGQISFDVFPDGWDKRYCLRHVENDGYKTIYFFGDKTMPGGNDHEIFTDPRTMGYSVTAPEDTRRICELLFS
Kind of series: Counter screen SAR assay for PMM2 inhibitors via a fluorescence intensity assay. [Related pubchem assays (depositor defined):AID1545, AID1574].

Molecules are shown by their SMILES. Several values for one entry are separate records, joined by “and”; a condition that tells them apart may be missing. Equal entries are not always repeated. Activity calls are given as the source filed them. Rule as the data show it, for most assays here: actives have a measured IC50 and inactives only a lower limit. A value given as a limit tells only on which side of the number the result lay.

Cytochrome P450 3A4, sequence (P08684 whole entry): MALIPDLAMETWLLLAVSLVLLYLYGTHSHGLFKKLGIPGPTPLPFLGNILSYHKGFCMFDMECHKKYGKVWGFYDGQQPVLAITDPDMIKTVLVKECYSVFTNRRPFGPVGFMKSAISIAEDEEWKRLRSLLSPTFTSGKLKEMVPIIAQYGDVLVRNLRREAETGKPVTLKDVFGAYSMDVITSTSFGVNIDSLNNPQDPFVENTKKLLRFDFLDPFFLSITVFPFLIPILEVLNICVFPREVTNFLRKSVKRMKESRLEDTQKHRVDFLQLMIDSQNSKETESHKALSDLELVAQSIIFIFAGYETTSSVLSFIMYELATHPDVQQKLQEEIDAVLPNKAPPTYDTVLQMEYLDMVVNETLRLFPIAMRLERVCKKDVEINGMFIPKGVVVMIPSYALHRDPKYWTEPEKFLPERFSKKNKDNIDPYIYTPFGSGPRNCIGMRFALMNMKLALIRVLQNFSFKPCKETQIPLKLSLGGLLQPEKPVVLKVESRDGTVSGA

Regarding `CCOC(=O)N1CCN(c2nc(-c3cccs3)cc(C(F)(F)F)n2)CC1`, the AC50 entry at Cytochrome P450 3A4 was “inconclusive”.

As to `NC(=O)CN1CCOCCOCCOCCOCCOCC1`, the AC50 entry at Cytochrome P450 3A4 is “inconclusive”.

By IC50 is commonly meant the concentration that inhibits the measured activity by half. For the compound `CCSc1nnc(NC(=O)C2CCCCC2C(=O)O)s1` (configuration not stated), the IC50 in [1], in series [2] and in series [3] was > 79.4 µM (inactive) in each case.

`O=C(O)C1CCCCC1C(=O)Nc1ccc(F)c(F)c1` (configuration not stated): the IC50 is > 79.4 µM (inactive) in [1], 37.8 µM (active) on Leucine aminopeptidase, > 79.4 µM (inactive) in [2] and > 79.4 µM (inactive) in series [3].

The term EC50 denotes the concentration at which the effect is half-maximal. For the compound `Cc1ccccc1/C=C1\Sc2ccc(C(=O)N3CCN(c4ccccn4)CC3)cc2N(C)C1=O`, the concentration for half-maximal inhibition (IC50) in the series with HEK293 [4] is 5.97 µM (active); on Tumor necrosis factor, 6.22 µM (active); in the series with HEK293 [6] it was 10.8 µM (active); in the series with HEK293 [7] it was 7.21 µM (active); with HEK293 [8] it was 6.78 µM (active); in series [9], 4.28 µM (active). The 50% effective concentration (EC50) in the series on HEK293 [5] is 8.18 µM (active); in the series on Streptococcus it was 16.6 µM (active); at Streptokinase A, > 150 µM (not active); in series [10], 4.49 µM (active).

For `COCC(=O)N1CCC2(CC1)CCN(c1ccc(-c3ccccc3)cc1)CC2`, the AC50 entry on Cytochrome P450 3A4 is recorded as “inconclusive”.

Take `O=c1c2ccccc2sn1-c1nc2ccc(SC(F)F)cc2s1`: the IC50 in series [11] is > 50 µM (inactive); at Phosphomannomutase 2, > 100 µM (inactive).

Regarding `O=c1c2ccccc2sn1-c1ncc(Br)s1`, the values for the IC50 (in [11]; on Phosphomannomutase 2) were > 50 µM (inactive) and > 100 µM (inactive), respectively.

Take `Clc1nss/c1=N\c1nccs1`: the IC50 is 32.9 µM (active) and 4.34 µM (active) in series [11]; > 100 µM (inactive) on Phosphomannomutase 2.

As for `COc1ccc(C(=O)Nc2sc3c(c2C(=O)O)CC(C)(C)OC3)cc1OC`, the values for the IC50 (at Tumor necrosis factor; in the series with HEK293 [6]; in series [9]) were > 20 µM (inactive), > 20 µM (inactive) and 15.1 µM (active), respectively.

For `O=C(CNC(=O)c1ccc(Cl)cc1)NCC(F)(F)F`, the IC50 in series [1], in series [2] and in series [3] was > 79.4 µM (inactive) throughout.
